Molecular target: human SCD1 (Homo sapiens (Human), UniProt O00767)
Test: Yeast growth assay, strain expressing human SCD1 as the sole desaturase (reduced growth as surrogate for SCD inhibition)
Assay type: cell-based
Settings: yeast with OLE1 deleted expressing human SCD1 from a plasmid; growth read as OD600 after 40 h at 30° C.; top drug concentration 33.3 μM
Description: Strains expressing SCD1 or SCD5 as the sole desaturase, the human SCD1 and SCD5 genes were used to evaluate inhibition of SCD1/SCD5 using reduced growth as a surrogate for SCD inhibition. These yeast strains express human SCD1 or SCD5 from a plasmid harbored in a strain in which the yeast OLE1 gene is deleted.
All compound profiling experiments were performed using the same basic protocol. Yeast were cultured using standard techniques in complete synthetic media lacking uracil and containing yeast nitrogen base supplemented with 2% (w/v) glucose (SD-Ura) Starter cultures were inoculated in 3 mL SD-Ura media containing 0.01% tween and 0.2 mM palmitoleic and oleic acid. Cultures were incubated overnight in a 30° C. shaker incubator (225 rpm). Saturated morning cultures were centrifuged, washed in SD-Ura media lacking TWEEN-20 and fatty acids, and then diluted 1:20 in fresh SD-Ura media also lacking TWEEN-20 and fatty acids.
Compound administration was performed in two separate steps. First, 15 μL of SD-Ura was dispensed into clear 384-well assay plates using a MULTIDROP™ Combi reagent dispenser. […] The cultures described above were centrifuged and washed with media lacking TWEEN-20 or oleic and palmitoleic acids.
After yeast delivery, assay plates were incubated under humidified conditions at 30° C. for 40 h. Yeast growth was monitored by reading the OD600 of each well using a microplate reader (Perkin Elmer EnVision™).

Chain of human SCD1 (O00767 whole entry): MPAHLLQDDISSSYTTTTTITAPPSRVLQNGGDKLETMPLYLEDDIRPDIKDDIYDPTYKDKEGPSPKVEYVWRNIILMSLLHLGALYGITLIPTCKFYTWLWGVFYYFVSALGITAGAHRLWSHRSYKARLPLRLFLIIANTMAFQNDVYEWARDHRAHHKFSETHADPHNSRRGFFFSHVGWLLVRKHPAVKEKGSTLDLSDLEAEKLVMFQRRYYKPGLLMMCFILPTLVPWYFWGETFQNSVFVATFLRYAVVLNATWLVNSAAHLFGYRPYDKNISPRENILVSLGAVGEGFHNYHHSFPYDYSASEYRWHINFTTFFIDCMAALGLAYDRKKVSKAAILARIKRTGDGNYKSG

IC50 [µM]	Compound
0.19	O=C(Nc1cnn(Cc2cccc(F)c2)c1)c1cc(-c2cncs2)on1 [Compound 69, N-(1-(3-fluorobenzyl)-1H-pyrazol-4-yl)-5-(thiazol-5-yl)isoxazole-3-carboxamide]
0.12	O=C(c1cc(-c2ccccc2)on1)N1CC(Cc2ccccc2)C1 [Compound 211, (3-benzylazetidin-1-yl)-(5-phenylisoxazol-3-yl)methanone]
> 45	COc1ccc(-c2cc(C(=O)N3CCN(c4ccccc4)CC3)no2)cc1OC [Compound 274]
> 45	O=C(c1cc(-c2ccc3c(c2)OCO3)on1)N1CCCC1c1ncco1 (stereo not shown) [Compound 423]
> 45	O=C(c1cc(-c2ccc3c(c2)OCO3)on1)N1CCCC1C1CCOCC1 (stereo not shown) [Compound 413]
> 45	Cn1ccnc1C1CCCN1C(=O)c1cc(-c2ccc3c(c2)OCO3)on1 (stereo not shown) [Compound 446]
> 45	O=C(Nc1cnn(Cc2cnccc2C(F)(F)F)c1)c1cc(-c2ccco2)on1 [Compound 198, 5-(furan-2-yl)-N-(1-{[4-(trifluoromethyl)pyridin-3-yl]methyl}-1H-pyrazol-4-yl)-1,2-oxazole-3-carboxamide]
30.5	O=C(c1cc(-c2ccccc2)on1)N1CCC[C@H]1c1ccccc1 [Compound 386]
> 45	O=C(c1cc(-c2ccc3c(c2)OCO3)on1)N1CCC[C@@H]1C(F)(F)F [Compound 372]
> 45	COc1cccc(F)c1C1CCCN1C(=O)c1cc(-c2ccc3c(c2)OCO3)on1 (stereo not shown) [Compound 453]
27.1	COc1ccc(-c2cc(C(=O)N3CCC[C@H]3c3ccccc3)no2)cn1 [Compound 410]
> 45	O=C(c1cc(-c2ccc3c(c2)OCO3)on1)N1CCCC1C1CC1 (stereo not shown) [Compound 407]
> 45	Cc1nn(Cc2ccccc2)c(C)c1NC(=O)c1cc(-c2ccc3c(c2)OCO3)on1 [Compound 5]
30	O=C(c1cc(-c2ccc3c(c2)OCO3)on1)N1C[C@@H](F)C[C@H]1c1ccccc1 [Compound 427]
25	O=C(Nc1cnn(Cc2cnccc2C(F)(F)F)c1)c1noc2c1CCCC2 [Compound 194, N-(1-{[4-(trifluoromethyl)pyridin-3-yl]methyl}-1H-pyrazol-4-yl)-4,5,6,7-tetrahydro-1,2-benzoxazole-3-carboxamide]
> 45	Cc1nn(C)c2cc(-c3cc(C(=O)N4COCC4c4ccccc4)no3)ccc12 (stereo not shown) [Compound 419]
> 45	COc1ccc(C2CCCN2C(=O)c2cc(-c3ccc4c(c3)OC(F)(F)O4)on2)cc1 (stereo not shown) [Compound 393]
0.01	O=C(Nc1cnn(Cc2cccc(F)c2)c1)c1cc(-c2ccco2)on1 [Compound 30, N-[1-[(3-fluorophenyl)methyl]pyrazol-4-yl]-5-(2-furyl)isoxazole-3-carboxamide]
> 45	O=C(c1cc(-c2ccc3c(c2)OCO3)on1)N1CCCC1c1ccccc1 (stereo not shown) [Compound 354]
36.6	COc1ccc(C2CCCN2C(=O)c2cc(-c3ccc(F)c(OC)c3)on2)cc1 (stereo not shown) [Compound 383]
> 45	COc1ccc(C2CCCN2C(=O)c2cc(-c3ccc(OC(F)(F)F)cc3)on2)cc1 (stereo not shown) [Compound 380]
> 45	CC(C)(C)OC(=O)N1CCN(C(=O)c2cc(-c3ccc4c(c3)OCO4)on2)CC1 [Compound 267]
36	O=C(c1cc(-c2ccccc2)on1)N1CCn2ccnc2C1 [Compound 268]
> 45	O=C(Nc1cnn(Cc2cccc(C(F)(F)F)c2)c1)c1cc(-c2ccco2)on1 [Compound 20, 5-(2-furyl)-N-[1-[[3-(trifluoromethyl)phenyl]methyl]pyrazol-4-yl]isoxazole-3-carboxamide]
> 45	O=C(NC1CCN(c2ccccc2)C1)c1cc(-c2ccco2)on1 (stereo not shown) [Compound 343]

IC50 [µM]	Compound
> 45	O=C(c1cc(-c2ccccc2)on1)N1CCC[C@@H]1c1ccccc1 [Compound 385]
> 45	COc1ccccc1Cn1cc(NC(=O)c2cc(-c3ccccc3)on2)cn1 [Compound 125, N-(1-(2-methoxybenzyl)-1H-pyrazol-4-yl)-5-phenylisoxazole-3-carboxamide]
0.066	O=C(Nc1cnn(Cc2cccc(F)c2)c1)c1cc(C2CCCCC2)on1 [Compound 83, 5-cyclohexyl-N-(1-(3-fluorobenzyl)-1H-pyrazol-4-yl)isoxazole-3-carboxamide]
15	O=C(Nc1cnn(Cc2ccccc2)c1)c1cc(N2CC[C@H](O)C2)on1 [Compound 187]
> 45	O=C(Nc1cnn(Cc2ccccc2C(F)(F)F)c1)c1cc(-c2ccco2)on1 [Compound 14, 5-(furan-2-yl)-N-(1-(2-(trifluoromethyl)benzyl)-1H-pyrazol-4-yl)isoxazole-3-carboxamide]
> 45	COc1ccc(C2CCCN2C(=O)c2cc(-c3ccc4c(c3)OCO4)on2)c(F)c1 (stereo not shown) [Compound 452]
> 45	Cn1nccc1-c1ccc2c(C(=O)N3CCC[C@H]3c3ccccc3)noc2c1 [Compound 454]
> 45	O=C(c1cc(-c2ccc3c(c2)OCO3)on1)N1CCCC1c1ccnc(Br)c1F (stereo not shown) [Compound 459]
> 45	CC(C)c1cc(C(=O)N2CCC(c3cccc(F)c3)C2)no1 (stereo not shown) [Compound 350]
> 45	O=C(c1cc(-c2ccc(Cl)cn2)on1)N1CC(Cc2ccccc2)C1 [Compound 254]
33.5	O=C(c1cc(-c2ccc3c(c2)OCO3)on1)N1CCC[C@H]1c1ccccc1 [Compound 327]
0.36	O=C(Nc1cnn(Cc2ccccc2F)c1)c1cc(-c2ccco2)on1 [Compound 19, N-[1-[(2-fluorophenyl)methyl]pyrazol-4-yl]-5-(2-furyl)isoxazole-3-carboxamide]
> 45	COc1ccccc1C1CCCN1C(=O)c1cc(-c2ccc3c(c2)OCO3)on1 (stereo not shown) [Compound 364]
> 45	O=C(Nc1cnn(Cc2cnccc2C(F)(F)F)c1)c1cc(-c2ccccn2)on1 [Compound 197, 5-(pyridin-2-yl)-N-(1-{[4-(trifluoromethyl)pyridin-3-yl]methyl}-1H-pyrazol-4-yl)-1,2-oxazole-3-carboxamide]
> 45	O=C(Nc1cnn(Cc2cccc(Cl)c2)c1)c1cc(-c2ccco2)on1 [Compound 22, N-[1-[(3-chlorophenyl)methyl]pyrazol-4-yl]-5-(2-furyl)isoxazole-3-carboxamide]
> 45	O=C(Nc1cnn(Cc2cnccc2C(F)(F)F)c1)c1cc(-c2ccccc2)on1 [Compound 160, 5-phenyl-N-(1-((4-(trifluoromethyl)pyridin-3-yl)methyl)-1H-pyrazol-4-yl)isoxazole-3-carboxamide]
0.26	O=C(Nc1cnn(Cc2ccccc2)c1)c1cc(-c2cncs2)on1 [Compound 37, N-(1-benzylpyrazol-4-yl)-5-thiazol-5-yl-isoxazole-3-carboxamide]
> 45	O=C(c1cc(-c2ccccc2)on1)N1CCC(c2ccccc2C(F)(F)F)CC1 [Compound 289, (5-phenylisoxazol-3-yl)-[4-[2-(trifluoromethyl)phenyl]-1-piperidyl]methanone]
38.9	N#Cc1cccc(C2CCCN2C(=O)c2cc(-c3ccc4c(c3)OCO4)on2)c1 (stereo not shown) [Compound 396]
> 45	COc1ccc(C2CCCN2C(=O)c2cc(-c3cccc(OC)c3)on2)cc1 (stereo not shown) [Compound 375]
12	O=C(c1cc(-c2ccccc2)on1)N1CC2(C1)CC(O)(c1ccccc1)C2 [Compound 226, (6-hydroxy-6-phenyl-2-azaspiro[3.3]heptan-2-yl)-(5-phenylisoxazol-3-yl)methanone]
0.94	COC1(c2cc(C(=O)Nc3cnn(Cc4ccccc4)c3)no2)CCC1 [Compound 120]
0.036	O=C(Nc1cnn(Cc2cccc(F)c2)c1)c1cc(N2CCCCC2)on1 [Compound 102, N-(1-(3-fluorobenzyl)-1H-pyrazol-4-yl)-5-(piperidin-1-yl)isoxazole-3-carboxamide]
31.1	N#Cc1cccc(-c2cc(C(=O)N3CCC[C@H]3c3ccccc3)no2)c1 [Compound 403]
> 45	O=C(c1cc(-c2ccc3c(c2)OCO3)on1)N1C[C@H](F)C[C@H]1c1ccccc1 [Compound 420]

Compound	IC50 [µM]
N-(1-(3-fluorobenzyl)-1H-pyrazol-4-yl)-5-(pyrimidin-4-yl)isoxazole-3-carboxamide [Compound 90]	1.1
5-acetyl-N-(1-(3-fluorobenzyl)-1H-pyrazol-4-yl)isoxazole-3-carboxamide [Compound 91]	0.439
O=C(Nc1cnn(Cc2cccc(F)c2)c1)c1cc(-c2cnco2)on1 [Compound 86, N-(1-(3-fluorobenzyl)-1H-pyrazol-4-yl)-5-(oxazol-5-yl)isoxazole-3-carboxamide]	0.188
O=C(Nc1cnn(Cc2ccccc2)c1)c1cc(-c2nncs2)on1 [Compound 170, N-(1-benzyl-1H-pyrazol-4-yl)-5-(1,3,4-thiadiazol-2-yl)isoxazole-3-carboxamide]	0.131
O=C(Nc1cnn(Cc2cnccc2C(F)(F)F)c1)c1cc(-c2cnco2)on1 [Compound 171, 5-(oxazol-5-yl)-N-(1-((4-(trifluoromethyl)pyridin-3-yl)methyl)-1H-pyrazol-4-yl)isoxazole-3-carboxamide]	19
